Target: T1, wild-type LRRK2 (Homo sapiens, UniProt Q5S007)
T1 construct: DNA tag for qPCR detection (not a peptide; the protein part that carries it is not described); made in house; host or cells: HEK 293 cells (the same paragraph also describes T7 phage grown in E. coli BL21)
Experiment: Inhibitory activity against LRRK2: competition binding to ligand-affinity beads, DNA-tagged kinase quantitated by qPCR
Conditions: % of ctrl; for remaining binding at 0.01 µM: 10 nM compound, read-out: LRRK2(WT) Remaining kinase activity(%) at 10 nM; for remaining binding at 0.05 µM: 50 nM compound, read-out: LRRK2(WT) Remaining kinase activity(%) at 50 nM
Description: Representative compounds synthesized in Example 1 were assayed for inhibitory activity against wild-type LRRK2 and mutant LRRK2 (G2019S), and the results are summarized in Tables 2 and 3. In brief, a T7 phase strain carrying the wild-type kinase consisting of amino acid residues from H970 to E2527 of human-derived LRRK2 (Accession no. NP_940980.3) or a T7 phase strain carrying the G2019S mutation kinase was infected into E. coli strain BL21 which was then grown until log phase. After infection with T7 phases (multiplicity of infection=0.4), the cells were cultured at 32° C. for 90-150 minutes while shaking. Then, E. coli lysates were centrifuged (6,000×g) and the supernatant was filtered through a 0.2-μm filter. The kinases were produced in HEK 293 cells. In this regard, DNA was tagged to obtain DNA-tagged kinases for qPCR detection. For use in analyzing the kinases, affinity resins were prepared by treating streptavidin-coated magnetic beads with biotinylated small molecule ligands at room temperature for 30 minutes. Then, the liganded beads were blocked with an excess of biotin and washed with a blocking buffer (SeaBlock (Pierce), 1% BSA, 0.05% Tween 20, 1 mM DTT) to remove unbound ligands and thus to reduce the binding of non-specific phages. […] After one hour of incubation, the affinity beads were washed with a wash buffer (1×PBS, 0.05% Tween 20), resuspended in an elution buffer (1×PBS, 0.05% Tween 20, 0.5 μM non-biotinylated affinity ligand), and incubated at room temperature for 30 minutes while shaking. Afterwards, concentrations of wild-type LRRK2 and mutant LRRK2 (G2019S) in the eluted samples were quantitated by qPCR. Activity values are expressed as percentages relative to the control (% of ctrl). The compounds used in the activity assay were prepared into 40× stocks in 100% DMSO. The stocks were directly diluted during analysis procedures.
Table 2 includes inhibitory activities of the representative compounds of the present disclosure at 100 nM against wild-type LRRK2 and mutant LRRK2 (G2019S) while Table 3 includes inhibitory activities of the representative compounds at 10 nM and 50 nM against wild-type LRRK2. (+++ less than 10%; ++ less than 30%; + less than 50%; −50% or higher)

T1 sequence (Q5S007 970-2527): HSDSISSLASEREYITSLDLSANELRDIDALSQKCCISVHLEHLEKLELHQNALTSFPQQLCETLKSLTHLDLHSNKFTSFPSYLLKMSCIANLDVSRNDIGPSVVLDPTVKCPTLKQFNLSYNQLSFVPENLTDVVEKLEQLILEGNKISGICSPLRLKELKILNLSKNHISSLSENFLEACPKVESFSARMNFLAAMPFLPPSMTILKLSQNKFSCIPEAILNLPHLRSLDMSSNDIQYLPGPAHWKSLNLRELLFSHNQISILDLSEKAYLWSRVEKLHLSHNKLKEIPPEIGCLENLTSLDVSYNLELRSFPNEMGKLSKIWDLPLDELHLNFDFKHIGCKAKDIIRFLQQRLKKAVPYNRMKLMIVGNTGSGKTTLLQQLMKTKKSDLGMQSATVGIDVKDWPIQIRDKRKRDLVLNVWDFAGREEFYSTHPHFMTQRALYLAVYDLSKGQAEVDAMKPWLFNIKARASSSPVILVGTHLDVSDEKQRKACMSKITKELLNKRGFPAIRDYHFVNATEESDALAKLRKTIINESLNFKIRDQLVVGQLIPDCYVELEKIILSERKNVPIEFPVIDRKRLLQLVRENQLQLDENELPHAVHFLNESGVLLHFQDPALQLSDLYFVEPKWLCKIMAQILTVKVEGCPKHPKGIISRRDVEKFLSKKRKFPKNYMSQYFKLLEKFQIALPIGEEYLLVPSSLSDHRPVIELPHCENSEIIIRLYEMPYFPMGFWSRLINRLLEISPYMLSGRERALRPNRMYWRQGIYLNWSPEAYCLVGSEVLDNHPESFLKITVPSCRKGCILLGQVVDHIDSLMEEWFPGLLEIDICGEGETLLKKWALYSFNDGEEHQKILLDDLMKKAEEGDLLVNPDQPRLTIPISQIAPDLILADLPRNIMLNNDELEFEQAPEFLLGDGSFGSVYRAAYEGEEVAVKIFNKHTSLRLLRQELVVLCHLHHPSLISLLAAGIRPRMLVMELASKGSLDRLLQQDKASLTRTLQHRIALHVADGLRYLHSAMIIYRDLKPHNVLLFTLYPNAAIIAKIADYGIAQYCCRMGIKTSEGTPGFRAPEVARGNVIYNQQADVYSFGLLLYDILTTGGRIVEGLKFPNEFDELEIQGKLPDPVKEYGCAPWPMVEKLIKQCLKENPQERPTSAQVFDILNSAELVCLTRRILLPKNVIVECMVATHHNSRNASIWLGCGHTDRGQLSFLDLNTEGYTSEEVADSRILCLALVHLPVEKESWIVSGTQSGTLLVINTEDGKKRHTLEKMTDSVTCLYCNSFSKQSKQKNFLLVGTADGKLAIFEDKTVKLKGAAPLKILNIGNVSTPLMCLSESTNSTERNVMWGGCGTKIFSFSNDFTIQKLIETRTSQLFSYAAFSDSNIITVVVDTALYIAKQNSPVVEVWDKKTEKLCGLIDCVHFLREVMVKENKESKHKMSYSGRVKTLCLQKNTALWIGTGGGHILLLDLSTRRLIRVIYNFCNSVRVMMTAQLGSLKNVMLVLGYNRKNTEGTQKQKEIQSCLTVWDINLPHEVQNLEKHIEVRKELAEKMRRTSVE

Compound	remaining binding at 0.01 µM	remaining binding at 0.05 µM
COc1cc(C(=O)N2CCC3(CCOCC3)CC2)ccc1Nc1ncc(Cl)c(-c2cnn(C(C)C)c2)n1 [Compound 77, (4-((5-chloro-4-(1-isopropyl-1H-pyrazol-4-yl)pyrimidin-2-yl)amino)-3-methoxyphenyl)(3-oxa-9-azaspiro[5.5]undecan-9-yl)methanone]	< 50%	< 30%
COc1cc(C(=O)NC2CCN(C)CC2)ccc1Nc1ncc(Cl)c(-c2cnn(C(C)C)c2)n1 [Compound 60, 4-((5-chloro-4-(1-isopropyl-1H-pyrazol-4-yl)pyrimidin-2-yl)amino)-3-methoxy-N-(1-methylpiperidin-4-yl)benzamide]	< 50%	< 10%
COc1cc(C(=O)N2CCN(C(C)C)CC2)ccc1Nc1ncc(Cl)c(-c2cnn(C(C)(C)C)c2)n1 [Compound 88, (4-((4-(1-(tert-butyl)-1H-pyrazol-4-yl)-5-chloropyrimidin-2-yl)amino)-3-methoxyphenyl)(4-isopropylpiperazin-1-yl)methanone]	< 50%	< 10%
COc1cc(C(=O)NC2CCC(N(C)C)CC2)ccc1Nc1ncc(Cl)c(-c2cnn(C(C)C)c2)n1 (stereo not shown) [Compound 93, 4-((5-chloro-4-(1-isopropyl-1H-pyrazol-4-yl)pyrimidin-2-yl)amino)-N-(4-(dimethylamino)cyclohexyl)-3-methoxybenzamide]	< 50%	< 10%
COc1cc(C(=O)N(C)C)ccc1Nc1ncc(Cl)c(-c2cnn(C(C)C)c2)n1 [Compound 101, 4-((5-chloro-4-(1-isopropyl-1H-pyrazol-4-yl)pyrimidin-2-yl)amino)-3-methoxy-N,N-dimethylbenzamide]	≥ 50%	< 50%
COc1cc(C(=O)NC2CCN(C)CC2)ccc1Nc1ncc(Cl)c(-c2cnn(C(C)(C)C)c2)n1 [Compound 96, 4-((4-(1-(tert-butyl)-1H-pyrazol-4-yl)-5-chloropyrimidin-2-yl)amino)-3-methoxy-N -(1-methylpiperidin-4-yl)benzamide]	≥ 50%	< 30%
COc1cc(C(=O)N2[C@@H]3CC[C@H]2COC3)ccc1Nc1ncc(Cl)c(-c2cnn(C(C)C)c2)n1 [Compound 95, ((1R,5S)-3-oxa-8-azabicyclo[3.2.1]octan-8-yl)(4-((5-chloro-4-(1-isopropyl-1H-pyrazol-4-yl)pyrimidin-2-yl)amino)-3-methoxyphenyl)methanone]	≥ 50%	< 30%
COc1cc(C(=O)N2CCS(=O)(=O)CC2)ccc1Nc1ncc(Cl)c(-c2cnn(C(C)C)c2)n1 [Compound 84, (4-((5-chloro-4-(1-isopropyl-1H-pyrazol-4-yl)pyrimidin-2-yl)amino)-3-methoxyphenyl)(1,1-dioxidothiomorpholino)methanone]	< 50%	< 30%
COc1cc(C(=O)N2CCN3CCCC3C2)ccc1Nc1ncc(Cl)c(-c2cnn(C(C)C)c2)n1 (stereo not shown) [Compound 87, (4-((5-chloro-4-(1-isopropyl-1H-pyrazol-4-yl)pyrimidin-2-yl)amino)-3-methoxyphenyl)(hexahydropyrrolo[1,2-a]pyrazin-2(1H)-yl)methanone]	< 50%	< 30%
COc1cc(C(=O)NC2CCOCC2)ccc1Nc1ncc(Cl)c(-c2cnn(C(C)C)c2)n1 [Compound 80, 4-((5-chloro-4-(1-isopropyl-1H-pyrazol-4-yl)pyrimidin-2-yl)amino)-3-methoxy-N-(tetrahydro-2H-pyran-4-yl)benzamide]	< 50%	< 30%

The next lines start with the values.

remaining binding at 0.01 µM	remaining binding at 0.05 µM	Compound
< 50%	< 30%	COc1cc(C(=O)Nc2ccccc2)ccc1Nc1ncc(Cl)c(-c2cnn(C(C)C)c2)n1 [Compound 112, 4-((5-chloro-4-(1-isopropyl-1H-pyrazol-4-yl)pyrimidin-2-yl)amino)-3-methoxy-N-phenylbenzamide]
≥ 50%	< 50%	COc1cc(C(=O)NCc2cccc(N)c2)ccc1Nc1ncc(Cl)c(-c2cnn(C(C)C)c2)n1 [Compound 205, N-(3-aminobenzyl)-4-((5-chloro-4-(1-isopropyl-1H-pyrazol-4-yl)pyrimidin-2-yl)amino)-3-methoxybenzamide]
≥ 50%	< 50%	COc1cc(C(=O)Nc2cc(C)c(OC)c(C)c2)ccc1Nc1ncc(Cl)c(-c2cnn(C(C)C)c2)n1 [Compound 204, 4-((5-chloro-4-(1-isopropyl-1H-pyrazol-4-yl)pyrimidin-2-yl)amino)-3-methoxy-N-(4-methoxy-3,5-dimethylphenyl)benzamide]
≥ 50%	< 50%	COc1cc(C(=O)NCCO)ccc1Nc1ncc(Cl)c(-c2cnn(C(C)C)c2)n1 [Compound 138, 4-((5-chloro-4-(1-isopropyl-1H-pyrazol-4-yl)pyrimidin-2-yl)amino)-N-(2-hydroxyethyl)-3-methoxybenzamide]
< 50%	< 30%	COc1cc(C(=O)Nc2ccc(N(C)C)cc2)ccc1Nc1ncc(Cl)c(-c2cnn(C(C)C)c2)n1 [Compound 127, 4-((5-chloro-4-(1-isopropyl-1H-pyrazol-4-yl)pyrimidin-2-yl)amino)-N-(4-(dimethylamino)phenyl)-3-methoxybenzamide]
≥ 50%	< 30%	COc1cc(C(=O)N2CCN(C)CC2)c(F)cc1Nc1ncc(Cl)c(-c2cnn(C(C)C)c2)n1 [Compound 104, (4-((5-chloro-4-(1-isopropyl-1H-pyrazol-4-yl)pyrimidin-2-yl)amino)-2-fluoro-5-methoxyphenyl)(4-methylpiperazin-1-yl)methanone]
≥ 50%	< 30%	COc1cc(C(=O)N(C)CCO)ccc1Nc1ncc(Cl)c(-c2cnn(C(C)C)c2)n1 [Compound 141, 4-((5-chloro-4-(1-isopropyl-1H-pyrazol-4-yl)pyrimidin-2-yl)amino)-N-(2-hydroxyethyl)-3-methoxy-N-methylbenzamide]
≥ 50%	< 30%	COc1cc(C(=S)N2CCOCC2)c(F)cc1Nc1ncc(Cl)c(-c2cnn(C(C)C)c2)n1 [Compound 106, (4-((5-chloro-4-(1-isopropyl-1H-pyrazol-4-yl)pyrimidin-2-yl)amino)-2-fluoro-5-methoxyphenyl)(morpholino) methanethione]
< 50%	< 10%	CCN(C)C1CCN(C(=O)c2ccc(Nc3ncc(Cl)c(-c4cnn(C(C)C)c4)n3)c(OC)c2)CC1 [Compound 210, (4-((5-chloro-4-(1-isopropyl-1H-pyrazol-4-yl)pyrimidin-2-yl)amino)-3-methoxyphenyl)(4-(ethyl(methyl)amino)piperidin-1-yl)methanone]
< 50%	< 10%	COc1cc(C(=O)N2CCC(N(C)C)CC2)c(F)cc1Nc1ncc(Cl)c(-c2cnn(C(C)C)c2)n1 [Compound 110, (4-((5-chloro-4-(1-isopropyl-1H-pyrazol-4-yl)pyrimidin-2-yl)amino)-2-fluoro-5-methoxyphenyl)(4-(dimethylamino)piperidin-1-yl)methanone]
≥ 50%	< 50%	COc1cc(C(=O)NCC(OC)OC)ccc1Nc1ncc(Cl)c(-c2cnn(C(C)C)c2)n1 [Compound 198, 4-((5-chloro-4-(1-isopropyl-1H-pyrazol-4-yl)pyrimidin-2-yl)amino)-N-(2,2-dimethoxyethyl)-3-methoxybenzamide]
≥ 50%	< 50%	COc1cc(C(=O)NC(C)c2ccccc2)ccc1Nc1ncc(Cl)c(-c2cnn(C(C)C)c2)n1 (stereo not shown) [Compound 179, 4-((5-chloro-4-(1-isopropyl-1H-pyrazol-4-yl)pyrimidin-2-yl)amino)-3-methoxy-N-(1-phenylethyl)benzamide]
< 30%	< 10%	COc1cc(C(=S)N2CCN(C)CC2)ccc1Nc1ncc(Cl)c(-c2cnn(C(C)C)c2)n1 [Compound 103, (4-((5-chloro-4-(1-isopropyl-1H-pyrazol-4-yl)pyrimidin-2-yl)amino)-3-methoxyphenyl)(4-methylpiperazin-1-yl) methanethione]
